Entries after “also recorded” stand apart in the source; their conditions may differ. Read-outs that look alike come from different tables or passages of the source.
What was measured:
[1] = test system: CYP24A1; test: CYP24A1 expression induction in primary culture of human coronary artery smooth muscle cells; format: cell-based; conditions: HCASMC
Procedure: Compounds were tested in a primary culture of HCASMC to assess their potency in inducing the expression of CYP24A1 and VDR.
Primary culture of HCASMC was grown in smooth muscle growth medium SmGM-2 containing 5.5 mM glucose, 5% FBS, 50 μg/ml gentamicin, 50 ng/ml amphotericin-B, 5 μg/ml insulin, 2 ng/ml hFGF, and 0.5 ng/ml hEGF at 37° C. in a humidified 5% CO2-95% air. Cells were grown to >80% confluence and used within five passages.
Cells were plated into 6 well plates and treated with test agent for 24 h. Cells were lysed with the addition of 1 mL of Trizol and RNA prepared according to the manufacturer's protocol.
Real-time reverse transcription-PCR was performed with the forward and reverse PCR primers and […] of the TAQMAN™ probe specifically designed for CYP24A1 or VDR. (A TAQMAN™ probe is comprised of a fluorophore covalently attached to the 5′-end of the oligonucleotide probe and a quencher at the 3′-end.) After the data acquisition, the CYP24A1 or VDR mRNA expression level was normalized to the GAPDH mRNA level. […] Group mean±STDEV (standard deviation) are presented.

[2] = test system: normal mice; test: Hypercalcemic side effect profile and serum PTH in normal mice; format: in vivo, Male C57/BL mice; conditions: for dose at which compound starts to raise serum Ca: i.p. dosing once daily for 3 consecutive days
Procedure: The normal mice model is a convenient and quick way to assess the hypercalcemic side effect profile of compounds. At the same time, data on serum PTH can be collected.
Male C57/BL mice at 18-20 g are dosed with the test agent at 100 al/mouse (concentrations as indicated) i.p. once daily for 3 consecutive days or at 10 ml/kg, p.o. gavage, once daily for 5 days. The animals were harvested 24 h after the last dose by anesthetization with ketamine/xylazine. Blood was collected from the aorta. Serum total calcium was measured using the QuantiChrom Calcium Assay kit and/or the Roche Hitachi 912 Chemistry Analyzer. Serum PTH was measured using a PTH Immunoassay. Vehicle control was 100 l/mouse of 5% EtOH/95% propylene glycol for i.p. dosing or 10 ml/kg of 20% Hydroxypropyl-β-Cyclodextrin for p.o. gavage dosing.
For serum chemistry data, group mean±SEM are presented. Differences between vehicle and compound-treated groups are assessed using a one-way ANOVA followed by a Dunnett's post-hoc test. FIGS. 3A and 3B show the results from a typical p.o. gavage dosing study (n=4-9 per group).

[3] = test system: 5/6 nephrectomized uremic rats; test: Endothelial function (aortic ring relaxation) in 5/6 nephrectomized uremic rats; format: in vivo, Sprague Dawley rats; conditions: 5/6 NX rats; for acetylcholine-induced endothelial-dependent aortic relaxation / sodium nitroprusside (SNP)-induced endothelial-independent relaxation: 2-week treatment, aortic rings precontracted with PE
Procedure: The experimental conditions using the 5/6 (subtotal) nephrectomized rats were as described above. Twenty-four hours after the last dose, the animals were sacrificed, and the aorta tissues were harvested for the determination of endothelial function.
Rats were anesthetized with pentobarbital sodium (i.p., 35 mg/kg). Thoracic aortas were excised in a cold modified Krebs solution (see below) and a 3 mm aortic ring was suspended in 10 mL tissue baths under 0.5 grams of resting tension in a modified Krebs solution containing (g/L): NaCl 6.9169, KCl 0.3499, NaHCO3 2.0998, MgSO4 0.2901, KH2 PO4 0.1604, CaCl2 0.2663, glucose 1.9994, EDTA 0.026, equilibrated with 5% CO2-95% 02 (pH 7.4 at 37° C.). Aortas were sensitized by the addition of phenylephrine (PE, 3 μM) with 10 min washouts between intervals. Aortas were precontracted with PE (3 μM), and the endothelium-dependent vasodilator acetylcholine (ACh) was added in half-log increments (10^−9 mol/L-10^−4.5 mol/L) at 3-5 min intervals, allowing time for the effect of ACh to plateau. After a 60 min washout, aortas were precontracted with PE (3 μM) and subsequently treated with endothelial-independent vasodilator sodium nitroprusside (SNP; 10^−9 mol/L-10^−6 mol/L) at 3-5 min intervals, allowing time for the effect to plateau. Data were recorded with the BL-420F Data Acquisition & Analysis System.
ACh and SNP-induced relaxation were calculated as the % relaxation of the PE-induced precontraction. Differences in vascular function were determined using a two-way ANOVA, followed by a Bonferonni post-hoc test. […] SNP serves as a source of nitric oxide and induces relaxation via an endothelial-independent pathway.

[4] = Maximal absorbance wavelength and extinction coefficient (spectrophotometer scan); format: physicochemical; conditions: for maximal absorbance wavelength / extinction coefficient: 100 μM in 50:50 de-ionized water and ethanol; for extinction coefficient: in M-1·cm-1 (unit assumed)
Procedure: To determine the maximal absorbance wavelength (ODmax) and the extinction coefficients for the compounds, each compound is diluted in a 50:50 solution (by volume) of de-ionized water and ethanol at 100 μM and scanned by a spectrophotometer.

[5] = test system: CD14; test: CD14 expression induction in HL-60 promyelocytic leukemia cells (real-time RT-PCR); format: cell-based; conditions: Homo sapiens, HL-60 cells
Procedure: (§1) Some compounds were tested in HL-60 promyelocytic leukemia cells and a primary culture of human coronary artery smooth muscle cells (HCASMC) for CYP24A1 induction. It is well documented that CYP24A1 has a VDRE in its promoter region and is a specific target gene of VDR (Meyer et al., 2007, J Biol Chem 282: 22344-22352). […] Compounds also were tested in HCASMC for their effects in inducing VDR. To assess the suitability of a compound for modulating immune responses, compounds were tested in HL-60 for their effects in inducing CD14 expression. To assess the suitability of a compound for treating thrombosis, compounds also were tested in HCASMC for their effects in modulating thrombomodulin and thrombospondin-1.
(§2) Compounds are tested in human HL-60 promyelocytic leukemia cells to assess their potency in inducing the expression of CYP24A1 and CD14. HL-60 cells are cultured in IMDM supplemented with 20% heat-inactivated fetal bovine serum at 37° C. in a humidified 5% CO2-95% air atmosphere. Cells are plated into 6 well plates and treated with test agent for 24 h. Cells are lysed with the addition of 1 mL of Trizol and RNA prepared according to the manufacturer's protocol.
(§3) Real-time reverse transcription-PCR is performed with the forward and reverse PCR primers and 250 nM of the TAQMAN™ probe specifically designed for CYP24A1 or CD14. (A TAQMAN™ probe is comprised of a fluorophore covalently attached to the 5′-end of the oligonucleotide probe and a quencher at the 3′-end.) After the data acquisition, the CYP24A1 or CD14 mRNA expression level is normalized to the GAPDH mRNA level. FIGS. 2A and 2B show the results from a typical CYP24A1 (FIG. 2A) and CD14 (FIG. 2B) expression study.

[6] = test system: CYP24A1; test: CYP24A1 expression induction in HL-60 promyelocytic leukemia cells (real-time RT-PCR); format: cell-based; conditions: Homo sapiens, HL-60 cells
Procedure: as §1, §2, §3

[7] = 24 h, Table 4 summary, some values average of 2 or more determinations, read-out: EC50 for CYP24A1 induction
[8] = 24 h, mRNA normalized to GAPDH, Table 3 summary, some values average of 3 or more determinations, read-out: CD14 EC50
[9] = 24 h, mRNA normalized to GAPDH, Table 3 summary, some values average of 3 or more determinations, read-out: CYP24A1 EC50

Row | EC50 [1, 7] | maximal absorbance wavelength [4] | extinction coefficient [4] | Compound | EC50 ([1]; typical study, FIG. 5A, read-out: EC50 for inducing CYP24A1 expression) | dose at which compound starts to raise serum Ca [2] | dose at which compound starts to raise serum calcium ([2]; p.o. gavage once daily for 5 days, FIG. 3A) | dose at which compound starts to suppress PTH ([2]; p.o. gavage once daily for 5 days, FIG. 3B) | acetylcholine-induced endothelial-dependent aortic relaxation [3] | sodium nitroprusside (SNP)-induced endothelial-independent relaxation [3] | maximal absorbance wavelength (ODmax) ([4]; FIG. 1, typical absorbance profile) | EC50 [5, 8] | EC50 ([5]; typical study, FIG. 2B, read-out: EC50 for inducing CD14 expression) | EC50 [6, 9] | EC50 ([6]; typical study, FIG. 2A, read-out: EC50 for inducing CYP24A1 expression) | acetylcholine-induced endothelial-dependent relaxation ([3]; treatment with 0.16 and 0.64 μg/kg)
1 | 0.39 nM | 253 nm | 46990 | CCC(O)(CC)CCO[C@H](C)C1CCC2/C(=C/C=C3C[C@@H](O)C4(CC4)[C@H](O)C3)CCCC21C (stereo partly drawn) [Vida-10, (4R,8R)-6-((E)-2-((1S,7αS)-1-((R)-1-(3-ethyl-3-hydroxypentyloxy)ethyl)-7α-methyldihydro-1H-inden-4(2H,5H,6H,7H,7αH)-ylidene)ethylidene)spiro[2.5]octane-4,8-diol] |  | 1 µg/kg |  |  | improves endothelial function; also recorded: dose-dependent improvement; also recorded: potent in improving endothelial function | no significant effect |  | 0.4 nM |  | 6.8 nM |  | back to the Sham level
2 | 0.39 nM | 254 nm | 60100 | C=C1[C@H](O)CC(=C/C=C2\CCCC3(C)C2CCC3[C@@H](C)OCCC(O)(CC)CC)C[C@H]1O (stereo partly drawn) [Vida-11, (1R,3R)-5-((E)-2-((1S,3αS,7αS)-1-((R)-1-(3-ethyl-3-hydroxypentyloxy)ethyl)-7α-methyldihydro-1H-inden-4(2H, 5H, 6H, 7H, 7αH)-ylidene)ethylidene)-2-methylenecyclohexane-1,3-diol] |  | 0.1 µg/kg |  |  | improves; also recorded: dose-dependent improvement; also recorded: potent in improving endothelial function | no significant effect |  | 0.9 nM |  | 0.8 nM |  | 

Row | Compound | EC50 [1, 7] | maximal absorbance wavelength [4] | extinction coefficient [4] | EC50 ([1]; typical study, FIG. 5A, read-out: EC50 for inducing CYP24A1 expression) | dose at which compound starts to raise serum Ca [2] | dose at which compound starts to raise serum calcium ([2]; p.o. gavage once daily for 5 days, FIG. 3A) | dose at which compound starts to suppress PTH ([2]; p.o. gavage once daily for 5 days, FIG. 3B) | acetylcholine-induced endothelial-dependent aortic relaxation [3] | sodium nitroprusside (SNP)-induced endothelial-independent relaxation [3] | maximal absorbance wavelength (ODmax) ([4]; FIG. 1, typical absorbance profile) | EC50 [5, 8] | EC50 ([5]; typical study, FIG. 2B, read-out: EC50 for inducing CD14 expression) | EC50 [6, 9] | EC50 ([6]; typical study, FIG. 2A, read-out: EC50 for inducing CYP24A1 expression) | acetylcholine-induced endothelial-dependent relaxation ([3]; treatment with 0.16 and 0.64 μg/kg)
3 | C=C1[C@H](O)CC(=C/C=C2\CCCC3(C)C2CCC3[C@@H](C)OC[C@H](C)C(C)(C)O)C[C@H]1O (stereo partly drawn) [Vida-5, (1R,3R)-5-((E)-2-((3αS,7αS)-1-((R)-1-((S)-3-hydroxy-2,3-dimethylbutoxy)ethyl)-7α-methyldihydro-1H-inden-4(2H,5H,6H, 7H, 7αH)-ylidene)ethylidene)-2-methylenecyclohexane-1,3-diol] | 2 nM | 253 nm | 48360 | 2.9 nM | 1 µg/kg | 5 µg/kg | 0.05 µg/kg | improves; also recorded: dose-dependent improvement; also recorded: potent in improving endothelial function | no significant effect | 253 nm | 3.7 nM | 4.1 nM | 7.3 nM | 5.6 nM | 

— patent US20180327354A1, “Unnatural Analogues of Calcitriol and Uses Thereof” (Vidasym, Inc., priority 2009, published 2018)
